{"source": "the NIST ThermoML archive (doi:10.1016/j.fluid.2015.09.034)", "details": "Liquid, Chromatography", "note": "Numbers after ± are expanded uncertainties.", "data": [{"compound": "O=C=O", "note": "[carbon dioxide]", "values": [{"measurement": "vapor or sublimation pressure", "setting": "223.14 K", "value": "682.9 ± 53", "unit": "kPa"}, {"measurement": "vapor or sublimation pressure", "setting": "298.17 K", "value": "6436.9 ± 500", "unit": "kPa"}, {"measurement": "vapor or sublimation pressure", "setting": "303.16 K", "value": "7210.5 ± 560", "unit": "kPa"}]}]}
